Test results as given in the supplement of paper PMC7806825.
± gives the standard deviation of the averaged measurements.

Tested on: McpC ligand-binding domain (Salmonella Typhimurium SL1344)
Assay: protein melting temperature (Tm) in presence of compound (degrees C); higher = more thermal stabilisation (possible ligand binding)
Settings: Biolog plate: PM01; compound stock concentration: 10-20 mM, 2 uL in 10 uL reaction

protein melting temperature | SMILES
44 | OC[C@H]1O[C@H](O[C@H]2[C@H](O)[C@@H](O)[C@@H](O[C@H]3[C@H](O)[C@@H](O)[C@@H](O)O[C@@H]3CO)O[C@@H]2CO)[C@H](O)[C@@H](O)[C@@H]1O [Maltotriose]
44.9 | COC(=O)C(C)=O [Methylpyruvate]
45 | COC(=O)CCC(=O)O [Mono-Methylsuccinate]
43.7 | O=C(O)[C@@H](O)[C@H](O)[C@H](O)[C@@H](O)C(=O)O [Mucic acid]
44.8 | CC(=O)N[C@@H]1C(O)O[C@H](CO)[C@@H](O)[C@@H]1O (stereo partly drawn) [N-Acetyl-D-Mannosamine]
44.9 | CCC(=O)O [Propionic acid]
44.9 | CC(=O)C(=O)O [Pyruvic acid]
44.5 | O=C(O)CCC(=O)O [Succinic acid]
44.6 | Cc1cn([C@H]2C[C@H](O)[C@@H](CO)O2)c(=O)[nH]c1=O [Thymidine]
44.3 | O=C(O)CC(CC(=O)O)C(=O)O [Tricarballylic acid]
45.3 | CCCCCCCC/C=C\CCCCCCCC(=O)OCCOCC(OCCO)C1OCC(OCCO)C1OCCO (stereo not drawn) [Tween 80]

SMILES | protein melting temperature
NCCc1ccc(O)cc1 [Tyramine] | 43.9

Same assay, conditions: Biolog plate: PM02A; compound stock concentration: 10-20 mM, 2 uL in 10 uL reaction

protein melting temperature | SMILES
44.5 | CC(C)[C@H](N)C(=O)O [L-Valine]
44.5 | OC[C@@H](O)[C@@H](O[C@H]1O[C@H](CO)[C@@H](O)[C@H](O)[C@H]1O)[C@H](O)[C@@H](O)CO [Maltitol]
44.8 | OC[C@H]1O[C@@H](O[C@H]2[C@H](O)[C@@H](O)[C@H](O[C@H]3[C@H](O)[C@H](O)[C@H](O[C@@H]4[C@H](O)[C@H](O)[C@H](O)O[C@@H]4CO)O[C@@H]3CO)O[C@@H]2CO)[C@@H](O)[C@@H](O)[C@@H]1O [Mannan]
44.7 | O=C(O)[C@H](O)[C@@H](O)[C@H](O)[C@H](O)CO[C@H]1O[C@H](CO)[C@H](O)[C@H](O)[C@H]1O [Melibionic acid]
44.6 | CC(=O)N[C@H]1C(O)O[C@H](CO)[C@H](O)[C@@H]1O (stereo partly drawn) [N-Acetyl-D-Galactosamine]
44.1 | CC(=O)N[C@@H](CO)[C@@H](O)[C@H](O)[C@H](O)CO [N-Acetyl-D-Glucosaminitol]
44.4 | CC(=O)N[C@H]1[C@H]([C@H](O)[C@H](O)CO)OC(O)(C(=O)O)C[C@@H]1O (stereo partly drawn) [N-Acetyl-Neuraminic acid]
44 | O=C(CO)[C@@H](O)[C@H](O)[C@H](O)CO[C@H]1O[C@H](CO)[C@@H](O)[C@H](O)[C@H]1O [Palatinose]
45 | O=C(O)[C@H]1O[C@@H](O)[C@H](O)[C@@H](O)[C@H]1O [Pectin]
43.7 | NCCCCN [Putrescine]
44.2 | O=C(O)[C@]1(O)C[C@@H](O)[C@@H](O)[C@H](O)C1 [Quinic acid]
44.8 | O=C(O)CCCCCCCCC(=O)O [Sebacic acid]
44.3 | OC[C@@]12OC[C@@H](O1)[C@@H](O)[C@@H](O)[C@@H]2O [Sedoheptulosan]
44 | C/C=C/C=C/C(=O)O [Sorbic acid]
44.5 | OC[C@H]1O[C@H](OC[C@H]2O[C@H](OC[C@H]3O[C@H](O[C@]4(CO)O[C@H](CO)[C@@H](O)[C@@H]4O)[C@H](O)[C@@H](O)[C@@H]3O)[C@H](O)[C@@H](O)[C@H]2O)[C@H](O)[C@@H](O)[C@H]1O [Stachyose]
43.6 | NC(=O)CCC(=O)O [Succinamic acid]
44.1 | O=C(CO)[C@@H](O[C@H]1O[C@H](CO)[C@@H](O)[C@H](O)[C@H]1O)[C@H](O)[C@H](O)CO [Turanose]

Same assay, conditions: Biolog plate: PM03B; compound stock concentration: 10-20 mM, 2 uL in 10 uL reaction

protein melting temperature | SMILES
44.8 | N[C@@H](Cc1ccc(O)cc1)C(=O)O [L-Tyrosine]
45 | CC(C)[C@H](N)C(=O)O [L-Valine]
44.9 | CSCC[C@H](N)C(=O)N[C@@H](C)C(=O)O [Met-Ala]
44.6 | CC(=O)N[C@H]1C(O)O[C@H](CO)[C@H](O)[C@@H]1O (stereo partly drawn) [N-Acetyl-D-Galactosamine]
45.5 | CC(=O)N[C@@H]1C(O)O[C@H](CO)[C@@H](O)[C@@H]1O (stereo partly drawn) [N-Acetyl-D-Mannosamine]
44.9 | CCCCCN [N-Amylamine]
45.3 | CCCCN [N-Butylamine]
44.9 | O=C(O)CC[C@@H](C(=O)O)N1C(=O)c2ccccc2C1=O [N-Phthaloyl-L-Glutamic acid]
46 | O=NO [Nitrite]
44 | O=C1NC(=O)C(=O)N1 [Parabanic acid]
44 | NCCCCN [Putrescine]
45.1 | Cc1cn([C@H]2C[C@H](O)[C@@H](CO)O2)c(=O)[nH]c1=O [Thymidine]
45.1 | Cc1c[nH]c(=O)[nH]c1=O [Thymine]
45.7 | O=c1cc[nH]c(=O)[nH]1 [Uracil]
46.5 | NC(N)=O [Urea]
44.4 | Oc1nc(O)c2nc(O)[nH]c2n1 [Uric acid]
44.5 | O=c1[nH]c(=O)c2nc[nH]c2[nH]1 [Xanthine]
44.3 | OC[C@H]1O[C@@H](n2cnc3c(O)nc(O)nc32)[C@H](O)[C@@H]1O [Xanthosine]

SMILES | protein melting temperature
CN [Methylamine] | 45.8
O=[N+]([O-])O [Nitrate] | 46
NCCc1ccc(O)cc1 [Tyramine] | 44.8

Same assay, conditions: Biolog plate: PM04A; compound stock concentration: 10-20 mM, 2 uL in 10 uL reaction

protein melting temperature | SMILES
44.4 | CS(=O)(=O)O [Methane Sulfonic acid]
44 | O=P(O)(O)CP(=O)(O)O [Methylene Diphosphonic acid]
43.7 | CC(=O)N[C@@H](CS)C(=O)O [N-Acetyl-L-Cysteine]
43.9 | N[C@H](COP(=O)(O)O)C(=O)O [O-Phospho-D-Serine]
43.7 | N[C@H](Cc1ccc(OP(=O)(O)O)cc1)C(=O)O [O-Phospho-D-Tyrosine]
43.9 | N[C@@H](COP(=O)(O)O)C(=O)O [O-Phospho-L-Serine]
44 | C[C@@H](OP(=O)(O)O)[C@H](N)C(=O)O [O-Phospho-L-Threonine]
43.7 | N[C@@H](Cc1ccc(OP(=O)(O)O)cc1)C(=O)O [O-Phospho-L-Tyrosine]
43.9 | NCCOP(=O)(O)O [O-Phosphoryl-Ethanolamine]
43.5 | O=C(O)COP(=O)(O)O [Phospho-Glycolic acid]
43.9 | C=C(OP(=O)(O)O)C(=O)O [Phosphoenol Pyruvate]
44 | O=C(O)CP(=O)(O)O [Phosphono Acetic acid]
43.7 | C[N+](C)(C)CCOP(=O)(O)O [Phosphoryl Choline]
43.7 | CSC[C@H](N)C(=O)O [S-Methyl-L-Cysteine]
44.2 | NCCS(=O)(=O)O [Taurine]
44.2 | C[C@H](CCC(=O)NCCS(=O)(=O)O)[C@H]1CC[C@H]2[C@@H]3[C@H](O)C[C@@H]4C[C@H](O)CC[C@]4(C)[C@H]3C[C@H](O)[C@]12C [Taurocholic acid]
44.3 | O=S1(=O)CCCC1 [Tetramethylene Sulfone]
42.7 | O=S(=O)(O)SSS(=O)(=O)O [Tetrathionate]
42.8 | O=S(O)(O)=S [Thiosulfate]
44.6 | NC(N)=S [Thiourea]
43.6 | Cc1cn([C@H]2C[C@H](OP(=O)(O)O)[C@@H](CO)O2)c(=O)[nH]c1=O [Thymidine 3`-Monophosphate]
43.7 | Cc1cn([C@H]2C[C@H](O)[C@@H](COP(=O)(O)O)O2)c(=O)[nH]c1=O [Thymidine 5`-Monophosphate]
44.7 | O=P1(O)OP(=O)(O)OP(=O)(O)O1 [Trimetaphosphate]
43.8 | O=c1ccn([C@@H]2O[C@H](CO)[C@@H](O)[C@H]2OP(=O)(O)O)c(=O)[nH]1 [Uridine 2`-Monophosphate]
43.5 | O=c1ccn([C@@H]2O[C@H](CO)[C@@H](OP(=O)(O)O)[C@H]2O)c(=O)[nH]1 [Uridine 3`-Monophosphate]

SMILES | protein melting temperature
CN(CC(=O)O)C(=N)NP(=O)(O)O [Phosphocreatine] | 44.3
OP(O)(O)=S [Thiophosphate] | 43.88 ± 0.26
CCOP(=O)(OCC)OCC [Triethyl Phosphate] | 44.9

Same assay, conditions: Biolog plate: PM05; compound stock concentration: 10-20 mM, 2 uL in 10 uL reaction

protein melting temperature | SMILES
43.9 | N[C@@H](Cc1ccc(O)cc1)C(=O)O [L-Tyrosine]
43.5 | CC(C)[C@H](N)C(=O)O [L-Valine]
42.6 | CC1=CC(=O)c2ccccc2C1=O [Menadione]
43.7 | NC(=O)c1cccnc1 [Nicotinamide]
43 | O=C(O)c1cc(=O)[nH]c(=O)[nH]1 [Orotic acid]
43.8 | O=C(O)CC(=O)C(=O)O [Oxaloacetic acid]
44.1 | NCCCCN [Putrescine]
43.2 | Cc1ncc(CO)c(C=O)c1O [Pyridoxal]
43.9 | Cc1ncc(CO)c(CN)c1O [Pyridoxamine]
43.8 | Cc1ncc(CO)c(CO)c1O [Pyridoxine]
43 | O=C(O)c1cc(C(=O)O)c2c(n1)C(=O)C(=O)c1cc(C(=O)O)[nH]c1-2 [Pyrrolo-Quinoline Quinone]
43.8 | O=C(O)c1cccnc1C(=O)O [Quinolinic acid]
43.6 | Cc1cc2nc3c(=O)[nH]c(=O)nc-3n(C[C@H](O)[C@H](O)[C@H](O)CO)c2cc1C [Riboflavin]
41.1 | NCCCCNCCCN [Spermidine]
43.8 | NCCCNCCCCNCCCN [Spermine]
43.7 | Cc1ncc(C[n+]2csc(CCOP(=O)(O)OP(=O)(O)O)c2C)c(N)n1 [Thiamine Pyrophosphate]
44.7 | Cc1cn([C@H]2C[C@H](O)[C@@H](CO)O2)c(=O)[nH]c1=O [Thymidine]
43 | Cc1c[nH]c(=O)[nH]c1=O [Thymine]
43.9 | CCCCCCCC/C=C\CCCCCCCC(=O)OCCOCC(OCCO)C1OCC(OCCO)C1OCCO (stereo not drawn) [Tween 80]
42.7 | O=c1cc[nH]c(=O)[nH]1 [Uracil]
